Experimental data taken from ChEMBL document CHEMBL5543172, “Novel Isoalantolactone-Based Derivatives as Potent NLRP3 Inflammasome Inhibitors: Design, Synthesis, and Biological Characterization” (J Med Chem, 2024).
The source made the active and inactive calls. The rule behind the calls is not given here.

How the values were obtained:
Mus musculus [1] = assay: Anti-colitis activity against DSS-induced ulcerative colitis C57BL/6 mouse model assessed as alleviation of goblet cell depletion at 15 to 30 mg/kg, ip administered daily and measured after 10 days by H and E staining based analysis; assay type: functional, organism-based; conditions: dose 15-30 mg/kg, time 10.0 day
BMDM [2] = assay: Induction of DNA damage in mouse BMDM cells assessed as DNA fragmentation at 1 uM measured after 24 hrs by fluorescence microscope based comet assay; assay type: functional, cell-based
[3] = molecular target: NACHT, LRR and PYD domains-containing protein 3 (Mus musculus) (UniProt Q8R4B8); assay: Inhibition of NLRP3 inflammasome activation in LPS/Nigericin induced mouse BMDM cells assessed as suppression of IL-1beta secretion preincubated with LPS for 3 hrs followed by compound addition for 40 mins and further stimulated with nigericin for 40 mins by Western blot analysis; assay type: cell-based; conditions: dose 0.25-1 µM, time 80.0 min
[4] = Genotoxicity in mouse BMDM cells; assay type: toxicity, cell-based
Cytochrome P450 2E1 = Cytochrome P450 2E1 (Homo sapiens, UniProt P05181); assay: Inhibition of CYP2E1 in human liver microsomes using chlorzoxazone as substrate preincubated for 5 mins followed by NADPH addition and measured after 30 to 60 mins by LC-MS/MS analysis; assay type: ADME, Microsome
Mus musculus [5] = assay: Anti-colitis activity against DSS-induced ulcerative colitis C57BL/6 mouse model assessed as alleviation of grave ulcer formation in colon at 15 to 30 mg/kg, ip administered daily and measured after 10 days by H and E staining based analysis; assay type: functional, organism-based; conditions: dose 15-30 mg/kg, time 10.0 day
[6] = molecular target: 3',5'-cyclic-AMP phosphodiesterase 4D (Homo sapiens) (UniProt Q08499); assay: Activation of PDE4D2 (unknown origin) at 1 uM relative to control
THP-1 [7] = assay: Inhibition of pyroptosis in LPS/nigericin induced PMA-differentiated human THP-1 cells assessed as reduction in red fluorescence production preincubated with LPS for 3 hrs followed by compound addition for 40 mins and further stimulated with nigericin for 40 mins by PI staining based inverted microscopy based analysis; assay type: functional, cell-based; conditions: dose 0.25-1 µM, time 80.0 min
BMDM [8] = assay: Cytotoxicity against mouse BMDM cells at 0.25 to 2 uM measured after 24 hrs by CCK-8 method; assay type: toxicity, cell-based; conditions: dose 0.25-2 µM
[9] = Cytotoxicity against human PBMC cells at 0.08 to 0.63 uM measured after 24 hrs by CCK-8 method; assay type: toxicity, cell-based; conditions: dose 0.08-0.63 µM
Mus musculus [10] = assay: Anti-colitis activity against DSS-induced ulcerative colitis C57BL/6 mouse model assessed as alleviation of thickening of inherent base layer in colon at 15 to 30 mg/kg, ip administered daily and measured after 10 days by H and E staining based analysis; assay type: functional, organism-based; conditions: dose 15-30 mg/kg, time 10.0 day
[11] = MRT (0 to t) in male C57BL/6 mouse at 30 mg/kg, ip measured upto 1440 mins by LC-MS/MS analysis; assay type: ADME, organism-based; conditions: in vivo
Mus musculus [12] = assay: Anti-colitis activity against DSS-induced ulcerative colitis C57BL/6 mouse model assessed as reduction in TNF-alpha level at 15 to 30 mg/kg, ip by ELISA method; assay type: functional, organism-based; conditions: dose 15-30 mg/kg
[13] = molecular target: Histamine H1 receptor (Homo sapiens) (UniProt P35367); assay: Activation of Histamine H1 receptor (unknown origin) at 1 uM relative to control
[14] = molecular target: Glucocorticoid receptor (Homo sapiens) (UniProt P04150); assay: Activation of GR receptor (unknown origin) at 1 uM relative to control
[15] = molecular target: Adenosine receptor A2a (Homo sapiens) (UniProt P29274); assay: Inhibition of adenosine A2A receptor (unknown origin) at 1 uM relative to control
[16] = molecular target: Substance-P receptor (Homo sapiens) (UniProt P25103); assay: Inhibition of NK1 receptor (unknown origin) at 1 uM relative to control
Homo sapiens = organism: Homo sapiens; assay: Activation of GlyRalpha1beta (unknown origin) at 1 uM relative to control
Mus musculus [17] = assay: Anti-colitis activity against DSS-induced ulcerative colitis C57BL/6 mouse model assessed as reduction in IL-1 beta level at 15 to 30 mg/kg, ip by ELISA method; assay type: functional, organism-based; conditions: dose 15-30 mg/kg
THP-1 [18] = assay: Binding affinity to NLRP3deltaLRR mutant in PMA- differentiated human THP-1 cells assessed as increase in thermal stability of protein at 1 uM pretreated with LPS for 3 hrs followed by compound addition at 45 to 63 degC for 2 mins by CETSA analysis; assay type: cell-based
[19] = molecular target: NACHT, LRR and PYD domains-containing protein 3 (Mus musculus) (UniProt Q8R4B8); assay: Inhibition of NLRP3 inflammasome activation in LPS/Nigericin induced mouse BMDM cells assessed as suppression of caspase-1 secretion preincubated with LPS for 3 hrs followed by compound addition for 40 mins and further stimulated with nigericin for 40 mins by Western blot analysis; assay type: cell-based; conditions: dose 0.25-1 µM, time 80.0 min
[20] = Drug distribution in C57BL/6 mouse colon at 30 mg/kg, ip measured after 2 hrs by LC-MS/MS analysis; assay type: ADME, organism-based; conditions: read-out: Drug uptake
[21] = Drug distribution in C57BL/6 mouse plasma at 30 mg/kg, ip measured after 24 hrs by LC-MS/MS analysis; assay type: ADME, organism-based
THP-1 [22] = assay: Cytotoxicity against human THP-1 cells at 4 uM measured after 24 hrs by CCK-8 method; assay type: functional, cell-based
[23] = molecular target: Alpha-1A adrenergic receptor (Homo sapiens) (UniProt P35348); assay: Inhibition of alpha 1A adrenergic receptor (unknown origin) at 1 uM relative to control
HEK293T [24] = assay: Inhibition of HA-NLRP3/FLAG tagged NEK7 interaction (unknown origin) transfected in HEK293T cells at 1 uM incubated for 24 hrs by Western blot analysis; assay type: cell-based; conditions: Homo sapiens
Mus musculus [25] = assay: Anti-colitis activity against DSS-induced ulcerative colitis C57BL/6 mouse model assessed as alleviation of mucosal damage in colon at 15 to 30 mg/kg, ip administered daily and measured after 10 days by H and E staining based analysis; assay type: functional, organism-based; conditions: dose 15-30 mg/kg, time 10.0 day
[26] = Drug distribution in C57BL/6 mouse colon at 30 mg/kg, ip measured after 24 hrs by LC-MS/MS analysis; assay type: ADME, organism-based; conditions: read-out: Drug uptake
[27] = Metabolic stability in mouse liver microsomes assessed as half life preincubated for 5 mins followed by NADPH addition and measured upto 60 mins by LC-MS/MS analysis; assay type: ADME, Microsome; conditions: time < 65 min
[28] = Metabolic stability in human liver microsomes assessed as half life preincubated for 5 mins followed by NADPH addition and measured upto 60 mins by LC-MS/MS analysis; assay type: ADME, Microsome; conditions: time < 65 min
THP-1 [29] = assay: Inhibition of NLRP3-ASC interaction in LPS/nigericin stimulated human THP-1 cells at 1 uM preincubated with LPS for 3 hrs followed by compound addition for 40 mins and further stimulated with nigericin for 40 mins by immunoprecipitation analysis; assay type: cell-based; conditions: time 80.0 min
[30] = molecular target: Muscarinic acetylcholine receptor M3 (Homo sapiens) (UniProt P20309); assay: Activation of muscarinic M3 receptor (unknown origin) at 1 uM relative to control
[31] = molecular target: Adenosine receptor A2a (Homo sapiens) (UniProt P29274); assay: Activation of adenosine A2A receptor (unknown origin) at 1 uM relative to control
[32] = Tmax in male C57BL/6 mouse at 30 mg/kg, ip measured upto 1440 mins by LC-MS/MS analysis; assay type: ADME, organism-based; conditions: in vivo
[33] = molecular target: Voltage-dependent N-type calcium channel subunit alpha-1B (Homo sapiens) (UniProt Q00975); assay: Activation of Cav2.2 (unknown origin) at 1 uM relative to control
HEK293T [34] = assay: Inhibition of HA-NLRP3 C279A mutant/FLAG tagged NEK7 interaction (unknown origin) transfected in HEK293T cells at 1 uM incubated for 24 hrs by Western blot analysis; assay type: cell-based; conditions: Homo sapiens

Chain of Adenosine receptor A2a (Homo sapiens) (P29274 whole entry): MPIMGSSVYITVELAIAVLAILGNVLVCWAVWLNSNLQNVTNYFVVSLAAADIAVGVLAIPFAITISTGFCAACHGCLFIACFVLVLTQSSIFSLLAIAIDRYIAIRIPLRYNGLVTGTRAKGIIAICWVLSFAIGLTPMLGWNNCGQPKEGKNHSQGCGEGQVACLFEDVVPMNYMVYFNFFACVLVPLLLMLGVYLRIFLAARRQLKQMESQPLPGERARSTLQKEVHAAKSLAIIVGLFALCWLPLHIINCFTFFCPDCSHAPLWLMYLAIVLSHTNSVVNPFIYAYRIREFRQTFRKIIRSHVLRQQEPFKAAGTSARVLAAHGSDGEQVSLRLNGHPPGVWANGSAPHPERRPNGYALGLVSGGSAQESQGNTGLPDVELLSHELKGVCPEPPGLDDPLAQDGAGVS
Chain of NACHT, LRR and PYD domains-containing protein 3 (Mus musculus) (Q8R4B8 whole entry, the tested form may be a part): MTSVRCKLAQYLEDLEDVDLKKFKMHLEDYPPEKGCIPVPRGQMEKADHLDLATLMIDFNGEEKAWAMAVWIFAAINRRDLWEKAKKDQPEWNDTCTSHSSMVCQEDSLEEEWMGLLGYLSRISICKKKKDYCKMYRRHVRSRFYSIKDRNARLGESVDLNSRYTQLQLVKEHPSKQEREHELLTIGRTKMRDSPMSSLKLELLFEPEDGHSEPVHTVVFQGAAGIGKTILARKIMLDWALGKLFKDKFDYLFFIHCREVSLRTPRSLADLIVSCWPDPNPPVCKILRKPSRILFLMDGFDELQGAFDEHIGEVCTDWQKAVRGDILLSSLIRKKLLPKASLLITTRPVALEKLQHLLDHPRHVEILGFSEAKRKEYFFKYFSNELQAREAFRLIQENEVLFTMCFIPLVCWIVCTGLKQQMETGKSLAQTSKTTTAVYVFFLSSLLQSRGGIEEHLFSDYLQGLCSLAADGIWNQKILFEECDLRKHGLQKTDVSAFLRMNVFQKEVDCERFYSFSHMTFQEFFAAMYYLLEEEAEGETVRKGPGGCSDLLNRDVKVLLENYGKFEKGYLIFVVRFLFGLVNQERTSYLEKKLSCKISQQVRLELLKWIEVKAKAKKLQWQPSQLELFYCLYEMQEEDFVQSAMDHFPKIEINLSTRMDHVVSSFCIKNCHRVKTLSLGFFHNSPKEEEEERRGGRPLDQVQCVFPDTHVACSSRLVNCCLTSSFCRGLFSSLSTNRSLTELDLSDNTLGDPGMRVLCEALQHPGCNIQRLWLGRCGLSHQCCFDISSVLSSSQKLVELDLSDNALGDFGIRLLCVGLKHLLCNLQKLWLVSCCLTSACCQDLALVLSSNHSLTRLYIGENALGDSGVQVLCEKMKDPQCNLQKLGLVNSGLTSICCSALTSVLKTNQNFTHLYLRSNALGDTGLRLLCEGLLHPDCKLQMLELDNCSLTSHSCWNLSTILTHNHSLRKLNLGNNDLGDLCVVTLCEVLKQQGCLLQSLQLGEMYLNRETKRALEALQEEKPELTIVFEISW
Chain of Voltage-dependent N-type calcium channel subunit alpha-1B (Homo sapiens) (Q00975 whole entry, looked up): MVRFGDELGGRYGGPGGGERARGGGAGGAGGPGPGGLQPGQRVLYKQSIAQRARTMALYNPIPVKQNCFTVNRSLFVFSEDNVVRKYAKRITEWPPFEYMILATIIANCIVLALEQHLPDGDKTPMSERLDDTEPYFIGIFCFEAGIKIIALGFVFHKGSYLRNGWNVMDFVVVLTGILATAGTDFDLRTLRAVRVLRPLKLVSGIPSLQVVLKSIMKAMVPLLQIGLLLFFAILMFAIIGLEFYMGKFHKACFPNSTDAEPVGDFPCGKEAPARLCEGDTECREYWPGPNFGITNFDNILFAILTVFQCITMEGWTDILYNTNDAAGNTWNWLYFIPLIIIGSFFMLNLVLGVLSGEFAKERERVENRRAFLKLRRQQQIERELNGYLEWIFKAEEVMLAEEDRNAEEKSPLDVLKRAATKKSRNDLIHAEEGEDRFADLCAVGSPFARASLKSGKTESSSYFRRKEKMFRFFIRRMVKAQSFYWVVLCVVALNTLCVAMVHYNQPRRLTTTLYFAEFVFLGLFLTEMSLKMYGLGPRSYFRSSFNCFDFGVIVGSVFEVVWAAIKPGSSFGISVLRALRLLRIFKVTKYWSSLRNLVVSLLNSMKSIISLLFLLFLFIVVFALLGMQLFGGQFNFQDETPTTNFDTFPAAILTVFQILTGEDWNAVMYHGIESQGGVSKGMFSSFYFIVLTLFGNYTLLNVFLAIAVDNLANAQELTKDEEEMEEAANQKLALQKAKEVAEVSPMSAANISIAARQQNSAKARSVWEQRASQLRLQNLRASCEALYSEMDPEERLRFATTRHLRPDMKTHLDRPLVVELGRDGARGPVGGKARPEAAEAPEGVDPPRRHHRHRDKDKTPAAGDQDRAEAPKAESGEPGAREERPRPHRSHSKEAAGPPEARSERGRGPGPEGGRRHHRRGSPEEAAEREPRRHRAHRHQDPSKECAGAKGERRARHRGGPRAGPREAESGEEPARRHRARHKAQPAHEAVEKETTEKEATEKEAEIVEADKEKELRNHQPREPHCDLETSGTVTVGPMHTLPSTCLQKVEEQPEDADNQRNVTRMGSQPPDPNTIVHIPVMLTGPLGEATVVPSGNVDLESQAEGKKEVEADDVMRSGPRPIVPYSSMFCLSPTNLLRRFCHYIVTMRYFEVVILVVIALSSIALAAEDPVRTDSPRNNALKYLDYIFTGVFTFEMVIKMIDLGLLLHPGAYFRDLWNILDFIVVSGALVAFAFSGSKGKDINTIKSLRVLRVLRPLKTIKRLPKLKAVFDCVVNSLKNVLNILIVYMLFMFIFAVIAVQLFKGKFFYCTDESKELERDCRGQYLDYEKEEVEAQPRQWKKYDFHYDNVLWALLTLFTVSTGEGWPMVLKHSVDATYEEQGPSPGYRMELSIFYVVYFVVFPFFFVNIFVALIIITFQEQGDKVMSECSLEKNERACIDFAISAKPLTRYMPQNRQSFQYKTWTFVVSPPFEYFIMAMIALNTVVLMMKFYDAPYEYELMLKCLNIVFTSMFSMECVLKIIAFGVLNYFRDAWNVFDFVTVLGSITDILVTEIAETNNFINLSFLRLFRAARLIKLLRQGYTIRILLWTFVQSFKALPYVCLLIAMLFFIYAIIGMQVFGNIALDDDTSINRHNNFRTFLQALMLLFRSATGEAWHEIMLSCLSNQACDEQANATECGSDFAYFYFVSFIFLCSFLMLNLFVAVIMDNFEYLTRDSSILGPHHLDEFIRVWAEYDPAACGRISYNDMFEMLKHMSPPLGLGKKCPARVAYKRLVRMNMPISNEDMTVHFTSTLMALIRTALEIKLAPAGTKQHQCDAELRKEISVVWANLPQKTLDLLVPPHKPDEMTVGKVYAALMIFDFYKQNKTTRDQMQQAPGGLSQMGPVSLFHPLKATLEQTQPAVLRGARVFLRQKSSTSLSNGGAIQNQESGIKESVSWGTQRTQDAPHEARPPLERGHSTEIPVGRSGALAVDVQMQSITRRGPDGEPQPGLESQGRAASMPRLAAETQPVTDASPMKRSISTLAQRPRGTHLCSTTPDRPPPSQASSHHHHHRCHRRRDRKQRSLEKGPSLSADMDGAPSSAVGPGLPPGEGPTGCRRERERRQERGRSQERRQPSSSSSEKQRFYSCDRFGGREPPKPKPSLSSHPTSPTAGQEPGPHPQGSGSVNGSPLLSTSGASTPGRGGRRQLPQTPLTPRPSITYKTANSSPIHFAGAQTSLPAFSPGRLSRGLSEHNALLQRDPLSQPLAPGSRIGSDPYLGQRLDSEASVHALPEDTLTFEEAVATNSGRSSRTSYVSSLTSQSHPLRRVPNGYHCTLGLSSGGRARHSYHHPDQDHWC
Chain of Alpha-1A adrenergic receptor (Homo sapiens) (P35348 whole entry): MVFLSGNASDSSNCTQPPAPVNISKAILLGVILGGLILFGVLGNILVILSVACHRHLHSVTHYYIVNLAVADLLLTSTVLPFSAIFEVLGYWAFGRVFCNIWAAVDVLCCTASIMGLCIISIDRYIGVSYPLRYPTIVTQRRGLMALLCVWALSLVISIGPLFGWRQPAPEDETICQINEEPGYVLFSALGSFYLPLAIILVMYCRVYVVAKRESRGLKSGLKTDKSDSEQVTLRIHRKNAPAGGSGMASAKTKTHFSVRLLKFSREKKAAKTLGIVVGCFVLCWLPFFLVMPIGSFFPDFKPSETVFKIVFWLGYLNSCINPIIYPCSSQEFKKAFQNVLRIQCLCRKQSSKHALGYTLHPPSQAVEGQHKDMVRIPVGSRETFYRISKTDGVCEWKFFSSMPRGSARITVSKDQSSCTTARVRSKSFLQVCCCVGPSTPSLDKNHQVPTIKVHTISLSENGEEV
Chain of Substance-P receptor (Homo sapiens) (P25103 whole entry): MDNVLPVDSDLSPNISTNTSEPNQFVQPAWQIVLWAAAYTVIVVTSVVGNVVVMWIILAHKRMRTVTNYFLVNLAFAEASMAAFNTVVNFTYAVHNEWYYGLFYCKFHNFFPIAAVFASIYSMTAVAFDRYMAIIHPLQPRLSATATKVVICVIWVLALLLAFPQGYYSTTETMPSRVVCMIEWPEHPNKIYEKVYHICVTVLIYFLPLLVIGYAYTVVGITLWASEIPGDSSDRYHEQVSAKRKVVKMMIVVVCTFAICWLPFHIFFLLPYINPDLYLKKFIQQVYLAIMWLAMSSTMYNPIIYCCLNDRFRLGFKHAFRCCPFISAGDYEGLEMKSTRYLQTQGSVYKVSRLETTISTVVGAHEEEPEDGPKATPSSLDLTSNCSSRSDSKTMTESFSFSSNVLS

C=C1C(=O)O[C@@H]2C[C@@]3(C)CC[C@@H](OC(=O)c4cnc(Cl)cc4Cl)C(=C)[C@@H]3C[C@H]12
Activity (Mus musculus [1]): Active
Activity (BMDM [2]): Active
inhibition [3]: Dose-Dependent Effect
Activity [4]: Non-Toxic
IC50 (Cytochrome P450 2E1): > 100 µM
Activity (Mus musculus [5]): Active
Activity [6]: < 50%
inhibition (THP-1 [7]): Active
Activity (BMDM [8]): Non-Toxic
Activity [9]: Non-Toxic
Activity (Mus musculus [10]): Active
MRT last at 24 h [11]: 11 h
Activity (Mus musculus [12]): Active
Activity [13]: < 50%
Activity [14]: < 50%
inhibition [15]: < 50%
inhibition [16]: < 50%
Activity (Homo sapiens): < 50%
Activity (Mus musculus [17]): Active
Activity (THP-1 [18]): Active
inhibition [19]: Dose-Dependent Effect
concentration at 2 h [20]: 4610 ng/g
concentration at 24 h [21]: 1.65 ng/mL
Activity (THP-1 [22]): Active
inhibition [23]: < 50%
inhibition (HEK293T [24]): Active
Activity (Mus musculus [25]): Active
concentration at 24 h [26]: 81.3 ng/g
half-life [27]: 1.09 h
half-life [28]: 3.04 h
inhibition (THP-1 [29]): Active
Activity [30]: < 50%
Activity [31]: < 50%
Tmax [32]: 0.78 h
Activity [33]: < 50%
inhibition (HEK293T [34]): inactive
